From publication PMC5006944 (Cell, 2016)

How the values were obtained:
[1] = tested on: c-RAF kinase activity in HeLa and A431 cells; assay: RAF kinase activity of c-RAF immunoprecipitates from EGF-stimulated cells; format: cell-based; settings: pre-treatment of cells; MEK substrate
[2] = tested on: c-RAF^Ser338 phosphorylation; assay: EGF-induced c-RAF^Ser338 phosphorylation in HCT116 cells; format: cell-based, human; settings: serum-starved HCT116, EGF 5 min
[3] = target: c-RAF/B-RAF heterodimer (Homo sapiens, UniProt P04049+P15056); assay: c-RAF/B-RAF co-immunoprecipitation after EGF stimulation; format: cell-based; settings: EGF-stimulated HeLa and A431 cells
[4] = target: GST-RBD (AA 1–149) of c-RAF (Homo sapiens, UniProt P04049); assay: Differential scanning fluorimetry; format: binding; settings: DSF
[5] = target: kinase domain (KD) of c-RAF (AA 306–648) (Homo sapiens, UniProt P04049); assay: Differential scanning fluorimetry; format: binding; settings: DSF
[6] = tested on: GTP-RAS in HeLa and A431 cell lines; assay: Active RAS pull-down after EGF stimulation, wild-type RAS cells; format: cell-based; settings: serum-starved HeLa and A431 cells, 2 μM
[7] = tested on: MEK and ERK phosphorylation in HeLa and A431 cells; assay: MEK and ERK phosphorylation western blot, HeLa and A431 cells; format: cell-based
[8] = tested on: mutant c-RAF RBDs; assay: MST binding to mutant c-RAF RBDs; settings: V69A
[9] = target: three RAF proteins; assay: In vitro RAF kinase assays; format: biochemical
[10] = target: GST-tagged B-RAF RBD (aa 151–230) (Homo sapiens, UniProt P15056); assay: Microscale thermophoresis
[11] = tested on: MEK and ERK activation in N-RAS (G12D)-expressing HeLa, HCT-116 and A549 cells; assay: MEK and ERK activation western blot, mutant RAS cells; format: cell-based
[12] = tested on: c-RAF^Ser338, MEK, ERK, and AKT phosphorylation; assay: Western blot of xenograft tumor extracts; format: in vivo, mouse; settings: tumor extracts vs placebo
[13] = tested on: MDS patients with monosomy 7 and trisomy 8; settings: phase III, MDS with monosomy 7 and trisomy 8; ref Garcia-Manero et al., 2016; cited from earlier work
[14] = tested on: A549 (K-RAS^G12S) xenograft; assay: A549 xenograft tumor growth; settings: 100 mg/kg twice daily i.p., 16 days, nude mice
[15] = target: GTP-RAS and CRAF-RBD interaction (Homo sapiens, UniProt P04049); assay: In vitro association of GST-RBD with GTP-RAS from EGF-stimulated A431 lysates; format: biochemical; settings: GST-RBD pre-incubated with increasing concentrations
[16] = tested on: HA-tagged mutant N-RAS G12D GTP-RAS in HeLa cells; assay: Active RAS pull-down, HeLa cells expressing mutant N-RAS G12D; format: cell-based; settings: pre-incubation
[17] = tested on: HCT116 (K-RAS^G13D) xenograft; assay: HCT116 xenograft tumor growth; settings: 100 mg/kg twice daily i.p., 16 days, nude mice
[18] = tested on: c-RAF^Ser338 phosphorylation; assay: c-RAF^Ser338 phosphorylation in synchronized HCT116 cells entering mitosis; format: cell-based, human; settings: HCT116, released from double thymidine block
[19] = tested on: PLK1; settings: subsequent experiments by us and others; ref Steegmaier et al., 2007; cited from earlier work
[20] = target: GST-tagged c-RAF RBD (aa 1–149) (Homo sapiens, UniProt P04049); assay: Microscale thermophoresis
[21] = target: PLK1 association with c-RAF^Ser338 (Homo sapiens, UniProt P04049); assay: PLK1 immunoprecipitation, associated c-RAF^Ser338 in HCT116 cells; format: cell-based; settings: HCT116, anti-PLK1 immunoprecipitation
[22] = tested on: PanIN lesions (K-RAS^G12D); assay: Pdx-cre:Kras^+/LSL G12D mouse model of pancreatic intraepithelial neoplasia; format: in vivo; settings: 14 days
[23] = target: recombinant Ral-GDS RBD (Homo sapiens, UniProt Q12967); assay: DSF and biotin-RGS pull-down, Ral-GDS RBD; format: binding; settings: DSF and pull-down with biotin-RGS conjugate
Sequence of recombinant Ral-GDS RBD (Q12967 798-885 limits assumed): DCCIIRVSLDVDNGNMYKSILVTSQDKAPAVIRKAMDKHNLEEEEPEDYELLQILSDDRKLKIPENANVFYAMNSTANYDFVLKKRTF

Sequence of PLK1 association with c-RAF^Ser338 (P04049 whole entry): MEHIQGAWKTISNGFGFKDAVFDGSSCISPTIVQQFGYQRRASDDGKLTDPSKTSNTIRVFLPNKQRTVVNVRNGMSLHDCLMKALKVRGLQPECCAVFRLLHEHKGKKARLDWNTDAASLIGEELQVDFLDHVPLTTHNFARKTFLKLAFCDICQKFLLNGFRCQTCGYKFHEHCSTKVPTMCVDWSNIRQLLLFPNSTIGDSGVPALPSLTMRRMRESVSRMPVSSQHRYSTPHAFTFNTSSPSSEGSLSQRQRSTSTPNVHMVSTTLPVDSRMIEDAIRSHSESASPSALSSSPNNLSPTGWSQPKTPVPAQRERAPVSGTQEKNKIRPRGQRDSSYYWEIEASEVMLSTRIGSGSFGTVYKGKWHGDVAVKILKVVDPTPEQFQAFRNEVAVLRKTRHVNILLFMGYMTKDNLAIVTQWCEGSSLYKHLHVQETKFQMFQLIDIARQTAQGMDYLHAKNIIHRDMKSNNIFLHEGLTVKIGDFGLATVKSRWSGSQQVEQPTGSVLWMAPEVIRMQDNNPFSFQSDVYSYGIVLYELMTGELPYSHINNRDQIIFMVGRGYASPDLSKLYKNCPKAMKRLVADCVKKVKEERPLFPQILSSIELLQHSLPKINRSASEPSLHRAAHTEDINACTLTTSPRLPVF
Sequence of c-RAF/B-RAF heterodimer (P04049 whole entry, the tested form may be a part): as the sequence (P04049 whole entry) above
Sequence of c-RAF/B-RAF heterodimer (P15056 whole entry, the tested form may be a part): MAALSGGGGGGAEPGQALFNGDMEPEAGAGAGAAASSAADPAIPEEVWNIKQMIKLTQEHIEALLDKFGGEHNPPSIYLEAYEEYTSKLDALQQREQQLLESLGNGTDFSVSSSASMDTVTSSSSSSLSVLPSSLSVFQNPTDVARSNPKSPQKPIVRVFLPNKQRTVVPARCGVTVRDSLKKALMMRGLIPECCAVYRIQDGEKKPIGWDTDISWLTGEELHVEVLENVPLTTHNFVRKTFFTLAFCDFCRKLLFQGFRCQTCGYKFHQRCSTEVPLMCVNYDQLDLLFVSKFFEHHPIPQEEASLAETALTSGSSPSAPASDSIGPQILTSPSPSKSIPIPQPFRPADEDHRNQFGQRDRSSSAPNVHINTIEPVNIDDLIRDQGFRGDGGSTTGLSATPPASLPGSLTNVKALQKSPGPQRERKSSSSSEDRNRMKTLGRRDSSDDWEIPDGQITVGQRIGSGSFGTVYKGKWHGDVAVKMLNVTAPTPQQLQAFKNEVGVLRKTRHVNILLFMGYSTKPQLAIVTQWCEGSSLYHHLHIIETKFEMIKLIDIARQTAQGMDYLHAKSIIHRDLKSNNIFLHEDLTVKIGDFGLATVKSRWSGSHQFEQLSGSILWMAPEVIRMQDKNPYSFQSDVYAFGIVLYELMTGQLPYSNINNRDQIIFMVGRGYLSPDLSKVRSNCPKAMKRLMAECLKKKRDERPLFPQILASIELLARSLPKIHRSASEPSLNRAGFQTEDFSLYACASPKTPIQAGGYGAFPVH
Sequence of GST-RBD (AA 1–149) of c-RAF (P04049 1-149): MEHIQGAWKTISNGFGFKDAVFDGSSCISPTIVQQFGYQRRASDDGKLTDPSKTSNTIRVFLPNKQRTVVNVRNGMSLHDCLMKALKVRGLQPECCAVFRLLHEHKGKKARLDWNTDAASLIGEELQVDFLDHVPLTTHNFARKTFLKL
Sequence of kinase domain (KD) of c-RAF (AA 306–648) (P04049 306-648): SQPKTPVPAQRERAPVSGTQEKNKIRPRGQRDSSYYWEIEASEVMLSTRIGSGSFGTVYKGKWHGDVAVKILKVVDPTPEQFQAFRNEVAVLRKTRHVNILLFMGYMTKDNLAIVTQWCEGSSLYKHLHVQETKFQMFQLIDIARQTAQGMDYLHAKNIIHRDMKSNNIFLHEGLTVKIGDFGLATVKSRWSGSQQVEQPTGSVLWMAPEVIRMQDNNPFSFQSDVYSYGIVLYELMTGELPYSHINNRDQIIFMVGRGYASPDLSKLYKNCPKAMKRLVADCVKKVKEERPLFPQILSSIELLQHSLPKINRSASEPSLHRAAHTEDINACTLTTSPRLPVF
Sequence of GST-tagged c-RAF RBD (aa 1–149) (P04049 1-149): as the sequence (P04049 1-149) above
Sequence of GST-tagged B-RAF RBD (aa 151–230) (P15056 151-230): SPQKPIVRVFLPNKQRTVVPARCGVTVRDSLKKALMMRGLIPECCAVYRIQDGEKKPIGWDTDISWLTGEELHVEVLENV
Sequence of GTP-RAS and CRAF-RBD interaction (P04049 56-131 limits assumed): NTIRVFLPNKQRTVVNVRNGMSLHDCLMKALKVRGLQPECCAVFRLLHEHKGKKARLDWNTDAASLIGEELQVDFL

Compound: CCCS(=O)(=O)Nc1ccc(F)c(C(=O)c2c[nH]c3ncc(-c4ccc(Cl)cc4)cc23)c1F [PLX4032, vemurafenib, reference compound]
- EGF-induced activation of RAF kinase activity [1]: enhancement
- EGF-induced c-RAF^Ser338 phosphorylation [2]: little or no effect
- c-RAF/B-RAF heterodimer formation [3]: enhanced the association
- interaction with c-RAF RBD (change in Tm) [4]: not with the RBD
- interaction with c-RAF kinase domain (thermal shift) [5]: strong thermal shift
- GTP-RAS pulled down by GST-RBD after EGF stimulation [6]: GTP-RAS could readily be pulled down
- phosphorylation status of MEK and ERK [7]: a small increase or no change

Compound: COc1cc(OC)c(/C=C/S(=O)(=O)Cc2ccc(OC)c(NCC(=O)O)c2)c(OC)c1 [RGS, rigosertib]
- binding affinity to c-RAF RBD mutants with reduced RAS binding ([8]; mutants K65A, V70A, and V88A, increased Kd values in MST): reduced binding affinities
- binding to c-RAF RBD mutants that abolished RAS binding ([8]; mutations T57A, R67A, L62A, V69G, and T68A): disrupted binding
- kinase activity of the three RAF proteins in in vitro assays [9]: does not inhibit
- Kd [10]: 0.71 nM
- MEK and ERK activation [11]: inhibits MEK and ERK activation equally well
- EGF-induced activation of RAF kinase activity [1]: inhibits EGF-induced activation of RAF kinase activity
- c-RAF^Ser338, MEK, ERK, and AKT phosphorylation in tumors [12]: dramatically reduced
- hazard ratio for survival [13]: 0.25–0.30
- EGF-induced c-RAF^Ser338 phosphorylation [2]: completely inhibited
- tumor growth [14]: dramatically decreased tumor growth
- c-RAF/B-RAF heterodimer formation [3]: nearly complete inhibition
- association of GST-RBD with activated RAS [15]: inhibition of its association with activated RAS in a concentration-dependent manner
- levels of mutant GTP-RAS bound to GST-RBD [16]: no effect on the levels of GTP-RAS
- interaction with c-RAF RBD (change in Tm) [4]: bound to RGS
- interaction with c-RAF kinase domain (thermal shift) [5]: did not interact
- GTP-RAS pulled down by GST-RBD after EGF stimulation [6]: very little or no GTP-RAS could be precipitated
- tumor growth [17]: dramatically decreased tumor growth
- phosphorylation status of MEK and ERK [7]: reduction in MEK and ERK phosphorylation
- reduction of c-RAF^Ser338 phosphorylation [18]: 90%
- PLK1 kinase activity [19]: does not directly inhibit
- Kd [20]: 0.18 nM
- association of PLK1 with c-RAF^Ser338 [21]: little or no association
- decrease in number of PanIN 1B, 2, and 3 grade tumors ([22]; 200 mg/kg twice daily i.p.): statistically significant
- number of pancreatic lesions, less than placebo-treated group ([22]; 200 mg/kg twice daily i.p.): ~ 3 fold
- cleaved caspase-3-positive cells in PanIN lesions, greater than control ([22]; 200 mg/kg twice daily): ~4 fold
- phosphorylated ERK and AKT^Ser473 in PanINs ([22]; immunohistochemistry, 200 mg/kg twice daily): markedly decreased levels
- binding to Ral-GDS RBD [23]: binds to recombinant Ral-GDS RBD, in a concentration-dependent manner

Compound: COC(=O)Nc1nc2ccc(C(=O)c3cccs3)cc2[nH]1 [nocadazole, nocodazole, reference compound]
- association of PLK1 with c-RAF^Ser338 [21]: strong association
